Experimental data taken from publication PMC6599250, “Functional diversity of inhibitors tackling the differentiation blockage of MLL-rearranged leukemia” (Journal of Hematology & Oncology, 2019).
Read-outs that look alike come from different tables or passages of the source. Values belong to the compound of their own block, whether it stands above or below them.

What was measured:
KOPN-8 (MLL-ENL) cells = assay: Cell proliferation (alamarBlue) KOPN-8; assay type: cell-based; conditions: Homo sapiens, KOPN-8, KOPN-8 (MLL-ENL), read-out: IC50 proliferation
Method: (§1) Cells were seeded in the optimal growth medium at 4000–5000 cells/well in a 96 MTP and cultured 18–24 h before inhibitor treatment.

MOLM-14 (MLL-AF9) cells = assay: Cell proliferation (alamarBlue) MOLM-14; assay type: cell-based; conditions: Homo sapiens, MOLM-14, MOLM-14 (MLL-AF9), read-out: IC50 proliferation
Method: as §1

SEM (MLL-AF4) cells = assay: Cell proliferation (alamarBlue) SEM; assay type: cell-based; conditions: SEM (MLL-AF4), read-out: IC50 proliferation
Method: as §1

HL-60 cells = assay: CD11b protein expression by flow cytometry, HL-60; assay type: cell-based; conditions: non-fused HL-60 cell line, 4 and 7 days of treatment
In short: (§2)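 Cells seeded 24 h before inhibitor treatment lasting 4 or 7 days. Then stained with CD11b-APC plus DAPI, or AnnexinV-FITC plus PI, and analysed by flow cytometry.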

P-TEFb/CDK9 = conditions: read-out: On target Potency IC50; cited from earlier work
ML-2 (MLL-AF6) cells = assay: Cell proliferation (alamarBlue) ML-2; assay type: cell-based; conditions: ML-2 (MLL-AF6), read-out: IC50 proliferation
Method: as §1

Jurkat (MLL-WT) cells = assay: Cell proliferation (alamarBlue) Jurkat; assay type: cell-based; conditions: Homo sapiens, Jurkat (MLL-WT)
Method: as §1

[1] = system: MV4-11, MOLM-13 and HL-60 cells; assay: Cell proliferation, all three tested AML cell lines; assay type: cell-based; conditions: 96 h; all tested cell lines (MV4-11, MOLM-13, HL-60), 4 days of treatment (Fig. 1a); read-out: anti-proliferation IC50s
Method: Cells were seeded in the optimal growth medium at 4000–5000 cells/well in a 96 MTP and cultured 18–24 h before inhibitor treatment. Upon treatment with the indicated inhibitor, cells were cultured for 24 h, 96 h, and 168 h and effects on proliferation were determined using alamarBlue Cell Viability Reagent (Thermo Fisher Scientific, Waltham, MA, USA).

[2] = system: OCI-AML-2 (MLL-AF9) cells; assay: Cell proliferation (alamarBlue) OCI-AML-2; assay type: cell-based; conditions: Homo sapiens, OCI-AML2, OCI-AML-2 (MLL-AF9), read-out: IC50 proliferation
Method: as §1

RS4;11 (MLL-AF4) cells = assay: Cell proliferation (alamarBlue) RS4;11; assay type: cell-based; conditions: Homo sapiens, RS4-11, RS4;11 (MLL-AF4), read-out: IC50 proliferation
Method: as §1

OCI-AML-3 (MLL-WT) cells = assay: Cell proliferation (alamarBlue) OCI-AML-3; assay type: cell-based; conditions: Homo sapiens, OCI-AML-3, OCI-AML-3 (MLL-WT), read-out: IC50 proliferation
Method: as §1

MV4-11 (MLL-AF4) cells = assay: Cell proliferation (alamarBlue) MV4-11; assay type: cell-based; conditions: Homo sapiens, MV4-11, MV4-11 (MLL-AF4), read-out: IC50 proliferation
Method: as §1

MOLM-13 (MLL-AF9) cells = assay: Cell proliferation (alamarBlue) MOLM-13; assay type: cell-based; conditions: Homo sapiens, MOLM-13, MOLM-13 (MLL-AF9), read-out: IC50 proliferation
Method: as §1

[3] = system: MYC, PCNA, and MCL-1 levels; parameters: method as in earlier work; conditions: initial pharmacodynamics data analysis; cited from earlier work
[4] = system: MV4-11, MOLM-13 and HL-60 cells; assay: Cell cycle analysis (PI, flow cytometry); assay type: cell-based; conditions: 4 days of treatment (Figure S2)
Method: Cells were washed with PBS and fixed overnight at − 20 °C with 70% ethanol. Fixed cells were stained with PI solution (Sigma-Aldrich St. Louis, MO, USA) solution containing RNase A (Qiagen, Hilden, Germany). Fluorescence was measured with FACS Canto II (BD Biosciences, Heidelberg, Germany) flow cytometer and data was analyzed with FACSDiva software.

NOMO-1 (MLL-AF9) cells = assay: Cell proliferation (alamarBlue) NOMO-1; assay type: cell-based; conditions: Homo sapiens, NOMO-1, NOMO-1 (MLL-AF9), read-out: IC50 proliferation
Method: as §1

EOL-1 (MLL-TD) cells = assay: Cell proliferation (alamarBlue) EOL-1; assay type: cell-based; conditions: Homo sapiens, EOL1, EOL-1 (MLL-TD), read-out: IC50 proliferation
Method: as §1

OCI-AML-5 (MLL-WT) cells = assay: Cell proliferation (alamarBlue) OCI-AML-5; assay type: cell-based; conditions: Homo sapiens, OCI-AML-5, OCI-AML-5 (MLL-WT), read-out: IC50 proliferation
Method: as §1

HL-60 (MLL-WT) cells = assay: Cell proliferation (alamarBlue) HL-60; assay type: cell-based; conditions: for IC50: Homo sapiens, HL-60 (MLL-WT), read-out: IC50 proliferation
Method: as §1

[5] = system: MLL-fused cell lines (MV4-11, MOLM-13); assay: CD11b protein expression by flow cytometry, MLL-fused lines; assay type: cell-based; conditions: 4 and 7 days of treatment
In short: as §2

[6] = system: selected MLL-fused models; assay: Cell proliferation, AML/ALL panel; assay type: cell-based; conditions: specifically in selected MLL-fused models (Fig. 2a); read-out: proliferation IC50 (significant effects)
Method: as §1

[7] = D1, read-out: IC50 proliferation
[8] = D4, read-out: IC50 proliferation
[9] = D7, read-out: IC50 proliferation
[10] = 168 h, 7 days of treatment (D7)

- IC50 (MOLM-14 (MLL-AF9) cells; D1): 40 nM
- IC50 (MOLM-14 (MLL-AF9) cells; D4): 40 nM
- IC50 (MOLM-14 (MLL-AF9) cells; D7): 70 nM
- IC50 (Jurkat (MLL-WT) cells; [7]): 140 nM
- IC50 (Jurkat (MLL-WT) cells; [8]): 30 nM
- IC50 (Jurkat (MLL-WT) cells; [9]): 30 nM
- IC50 [1]: 30 to 140 nM
- IC50 ([2]; D1): 70 nM
- IC50 ([2]; D4): 110 nM
- IC50 ([2]; D7): 70 nM
- IC50 (RS4;11 (MLL-AF4) cells; D1): 110 nM
- IC50 (RS4;11 (MLL-AF4) cells; D4): 90 nM
- IC50 (RS4;11 (MLL-AF4) cells; D7): 90 nM
- IC50 (OCI-AML-3 (MLL-WT) cells; D1): 90 nM
- IC50 (OCI-AML-3 (MLL-WT) cells; D4): 110 nM
- IC50 (OCI-AML-3 (MLL-WT) cells; D7): 180 nM
- IC50 (MV4-11 (MLL-AF4) cells; D1): 230 nM
- IC50 (MV4-11 (MLL-AF4) cells; D4): 70 nM
- IC50 (MV4-11 (MLL-AF4) cells; D7): 220 nM
- IC50 (MOLM-13 (MLL-AF9) cells; D1): 70 nM
- IC50 (MOLM-13 (MLL-AF9) cells; D4): 60 nM
- IC50 (MOLM-13 (MLL-AF9) cells; D7): 70 nM
- IC50 (OCI-AML-5 (MLL-WT) cells; D1): 160 nM
- IC50 (OCI-AML-5 (MLL-WT) cells; D4): 50 nM
- IC50 (OCI-AML-5 (MLL-WT) cells; D7): 30 nM
- IC50 (HL-60 (MLL-WT) cells; 24 h, 1 day of treatment (D1)): 140 nM
- IC50 (HL-60 (MLL-WT) cells; 96 h, 4 days of treatment (D4)): 110 nM
- IC50 (HL-60 (MLL-WT) cells; [10]): 240 nM
SMILES: COc1cc(F)ccc1-c1cc(Nc2cc(CS(C)(=N)=O)ccn2)ncc1F (stereo not shown) [BAY 1251152]
- IC50 (KOPN-8 (MLL-ENL) cells; D1): 160 nM
- IC50 (KOPN-8 (MLL-ENL) cells; D4): 120 nM
- IC50 (KOPN-8 (MLL-ENL) cells; D7): 210 nM
- IC50 (SEM (MLL-AF4) cells; D1): 260 nM
- IC50 (SEM (MLL-AF4) cells; D4): 90 nM
- IC50 (SEM (MLL-AF4) cells; D7): 200 nM
- CD11b level (HL-60 cells): treatment did
- IC50 (P-TEFb/CDK9): 3 nM
- IC50 (ML-2 (MLL-AF6) cells; D1): 110 nM
- IC50 (ML-2 (MLL-AF6) cells; D4): 200 nM
- IC50 (ML-2 (MLL-AF6) cells; D7): 230 nM
- pharmacodynamics in phase I [3]: dose-dependent reduction of MYC, PCNA, and MCL-1 levels
- cell cycle effect [4]: decrease of cells in S and G2/M phase with increasing concentrations
- IC50 (NOMO-1 (MLL-AF9) cells; D1): 240 nM
- IC50 (NOMO-1 (MLL-AF9) cells; D4): 60 nM
- IC50 (NOMO-1 (MLL-AF9) cells; D7): 100 nM
- IC50 (EOL-1 (MLL-TD) cells; D1): 70 nM
- IC50 (EOL-1 (MLL-TD) cells; D4): 30 nM
- IC50 (EOL-1 (MLL-TD) cells; D7): 60 nM

SMILES: CC(C)N(C[C@H]1O[C@@H](n2cnc3c(N)ncnc32)[C@H](O)[C@@H]1O)[C@H]1C[C@@H](CCc2nc3cc(C(C)(C)C)ccc3[nH]2)C1 [EPZ-5676]
- IC50 (KOPN-8 (MLL-ENL) cells; D1): > 10000 nM
- IC50 (KOPN-8 (MLL-ENL) cells; D4): > 10000 nM
- IC50 (KOPN-8 (MLL-ENL) cells; D7): > 10000 nM
- CD11b protein level [5]: increased CD11b protein level in a dose and time-dependent manner
- IC50 (MOLM-14 (MLL-AF9) cells; D1): > 10000 nM
- IC50 (MOLM-14 (MLL-AF9) cells; D4): 140 nM
- IC50 (MOLM-14 (MLL-AF9) cells; D7): 120 nM
- IC50 (SEM (MLL-AF4) cells; D1): > 10000 nM
- IC50 (SEM (MLL-AF4) cells; D4): > 10000 nM
- IC50 (SEM (MLL-AF4) cells; D7): > 10000 nM
- CD11b level (HL-60 cells): did not increase CD11b level
- IC50 (ML-2 (MLL-AF6) cells; D1): > 10000 nM
- IC50 (ML-2 (MLL-AF6) cells; D4): > 10000 nM
- IC50 (ML-2 (MLL-AF6) cells; D7): > 10000 nM
- IC50 (Jurkat (MLL-WT) cells; [7]): > 10000 nM
- IC50 (Jurkat (MLL-WT) cells; [8]): > 10000 nM
- IC50 (Jurkat (MLL-WT) cells; [9]): > 10000 nM
- IC50 ([2]; D1): > 10000 nM
- IC50 ([2]; D4): > 10000 nM
- IC50 ([2]; D7): > 10000 nM
- IC50 (RS4;11 (MLL-AF4) cells; D1): > 10000 nM
- IC50 (RS4;11 (MLL-AF4) cells; D4): > 10000 nM
- IC50 (RS4;11 (MLL-AF4) cells; D7): > 10000 nM
- IC50 (OCI-AML-3 (MLL-WT) cells; D1): > 10000 nM
- IC50 (OCI-AML-3 (MLL-WT) cells; D4): > 10000 nM
- IC50 (OCI-AML-3 (MLL-WT) cells; D7): > 10000 nM
- IC50 (MV4-11 (MLL-AF4) cells; D1): > 10000 nM
- IC50 (MV4-11 (MLL-AF4) cells; D4): 250 nM
- IC50 (MV4-11 (MLL-AF4) cells; D7): 280 nM
- IC50 (MOLM-13 (MLL-AF9) cells; D1): > 10000 nM
- IC50 (MOLM-13 (MLL-AF9) cells; D4): > 10000 nM
- IC50 (MOLM-13 (MLL-AF9) cells; D7): 6570 nM
- cell cycle effect [4]: decrease of cells in S and G2/M phase with increasing concentrations
- IC50 (NOMO-1 (MLL-AF9) cells; D1): > 10000 nM
- IC50 (NOMO-1 (MLL-AF9) cells; D4): > 10000 nM
- IC50 (NOMO-1 (MLL-AF9) cells; D7): 150 nM
- IC50 (EOL-1 (MLL-TD) cells; D1): > 10000 nM
- IC50 (EOL-1 (MLL-TD) cells; D4): > 10000 nM
- IC50 (EOL-1 (MLL-TD) cells; D7): 120 nM
- IC50 [6]: < 1000 nM
- IC50 (OCI-AML-5 (MLL-WT) cells; D1): > 10000 nM
- IC50 (OCI-AML-5 (MLL-WT) cells; D4): > 10000 nM
- IC50 (OCI-AML-5 (MLL-WT) cells; D7): > 10000 nM
- anti-proliferation effect in non-fused HL-60 (HL-60 (MLL-WT) cells; HL-60, 4 days of treatment (Fig. 1a)): no significant effects
- IC50 (HL-60 (MLL-WT) cells; 24 h, 1 day of treatment (D1)): > 10000 nM
- IC50 (HL-60 (MLL-WT) cells; 96 h, 4 days of treatment (D4)): > 10000 nM
- IC50 (HL-60 (MLL-WT) cells; [10]): > 10000 nM
